# Measurements reported in patent publication US20150044244A1, “COMBINED FACILITATOR, ANTIGEN AND DNA VACCINE FOR PREVENTING AND TREATING AUTOIMMUNE DISEASES” (BEIJING ADVANCCINE BIOTECHNOLOGY CO. LTD., priority 2011, published 2015).
# T1: MHC-II (I-Ad) (Mus musculus, UniProt P01921+P04228)
# T1 construct: purchased NIH Tetramer Core Facility
# T1 sequence (P04228 24-218 limits assumed): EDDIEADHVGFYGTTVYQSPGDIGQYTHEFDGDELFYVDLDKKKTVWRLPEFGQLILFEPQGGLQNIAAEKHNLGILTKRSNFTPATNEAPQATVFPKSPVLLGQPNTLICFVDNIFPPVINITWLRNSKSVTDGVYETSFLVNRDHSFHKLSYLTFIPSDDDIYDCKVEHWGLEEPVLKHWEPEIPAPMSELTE
# T1 sequence (P01921 28-226 limits assumed): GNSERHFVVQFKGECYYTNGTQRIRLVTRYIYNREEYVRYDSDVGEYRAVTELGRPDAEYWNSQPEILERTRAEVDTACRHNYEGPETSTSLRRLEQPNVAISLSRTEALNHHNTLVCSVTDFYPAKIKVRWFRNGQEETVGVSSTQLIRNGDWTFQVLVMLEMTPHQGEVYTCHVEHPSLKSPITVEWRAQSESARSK
# Experiments:
# JAWS II cells = assay: Endocytosis inhibitors and CD40low phenotype in JAWS II cells; type: cell-based, mouse; details: for effect on CD40low phenotype: pretreatment before pOVA323+OVA323
# Protocol: The JAWS II mouse DC line was purchased from the American Type Culture Collection (ATCC, Manassas, Va., USA) and maintained in complete growth medium containing minimum essential medium (MEM) alpha with ribonucleosides, deoxyribonucleosides, 4 mM L-glutamine, and 1 mM sodium pyruvate (Invitrogen Inc., Carlsbad, Calif., USA), and supplemented with 20% fetal bovine serum (ATCC) and 5 ng/ml murine recombinant GM-CSF (R&D Systems, Inc., Minneapolis, Minn., USA). The cells were incubated at 37° C. with 5% CO2 and treated with different antigens (10 μg/ml) such as pVAX, pOVA, OVA, pOVA323 and OVA323 for 24 h. For inhibitor treatment, JAWS II cells were pre-treated with filipin (10 μg/ml), MDC (50 μM) for 30 min at 37° C., respectively, or with amiloride (5 mM) for 10 min at 37° C., and washed with medium, then stimulated with antigens.
# DCs take up exogenous antigens via various mechanisms including clathrin-mediated endocytosis, caveolae-mediated endocytosis, and macropinocytosis. To define which pathway(s) were involved in the co-uptake of DNA and protein immunogens, JAWS II cells were pretreated with MDC, a specific inhibitor of clathrin formation, or filipin, an inhibitor of caveolae trafficking, before being treated with pOVA323+OVA323. […] Another inhibitor, amiloride, an inhibitor for macropinocytosis, had no effect on CD40 expression (FIG. 37).
# [1] = system: RAW264.7, DC2.4 and JAWSII; assay: Maturation markers and innate cytokines after pcD-S2 with or without amiloride, cell lines; type: cell-based, mouse
# Protocol: With respect to cell culture and inhibitor treatment, RAW264.7 and DC2.4 were cultured in DMEM/10% FCS, and JAWSII was cultured in DMEM/10% FCS with GMCSF (1000 U/ml, Peprotech, USA). Amiloride (Sigma-Aldrich, USA) was prepared as 10 mM solution and was diluted to 1 mM, 100 uM, 10 uM in DMEM medium before treatment. After culture medium was removed, cells were treated with amiloride, MβCD (5 mM, Sigma) or Fillipin (10 μg/ml, sigma) at 37° C. for 1 h. LPS (10 μg/ml, sigma) or 10 μg/ml DNA in DMEM was added at 37° C. for 0.5 h, after wash, culture medium was added and cells were cultured. Peritoneal macrophage was prepared from peritoneal cavity with 10 ml PBS wash, routinely with ˜50-70% F4/80 purity. Spleen dendritic cell was prepared from plate-adhesive cells and purified with Miltenyi DC purification kit (Miltenyi Biotec, Gladbach, Germany). Cells were treated and cultured 3 days for innate response.
# Hepatitis B virus DNA vaccine (pcD-S2) encoding for HBsAg, which was conjugated with Cy5, was used to test whether amiloride-facilitated DNA entry into antigen presenting cells could positively affect innate immune responses.
# [2] = system: RAW264.7, JAWSII and DC2.4; assay: Cy5-pEGFP plasmid entry and GFP expression in APC cell lines with amiloride; type: cell-based, mouse; details: vs un-treated cells
# [3] = system: Cy5+ cells in draining lymph nodes; assay: Cy5-pEGFP plasmid entry into draining lymph node cells after footpad injection; type: in vivo, C57B/6 mice; details: 4 hrs after footpad injection
# Protocol: To explore if amiloride would overcome low transfection efficiency in vivo, Cy5-labeled pEFGP plasmid with or without amiloride was injected into hind footpads of C57B/6 mice. After 4 hrs, draining lymph nodes were collected and Cy5+ cells were analyzed by FACS analysis. The inguinal lymph nodes from the un-injected side were also collected as negative controls. […] The other ˜10% was B220+, a B cell marker. […].
# [4] = system: CD8 T cells co-cultured with peritoneal macrophages or spleen dendritic cells; assay: APC and CD8 T cell co-culture, S208-215 restimulation; type: cell-based, mice; details: macrophages and DCs co-culture system
# Protocol: With respect to co-cultures, pcD-S2 (10 μg/ml) with or without 100 μM amiloride treat APCs, peritoneal macrophage or spleen dendrtic cell, were cultured for 2 days. At day3, purified CD8 T cell (R&D systems, USA) was added into culture with APC:T ratio of 1:5, 1:2, 1:1. At day 8, cells were collected and restimulated with S208-215 (10 μg/ml). PMA+Ionomycin was added as positive control for restimulation.
# During the co-culture, HBsAg-derived peptide S208-215 (ILSPFLPL; H-2 Kb-restricted) was used to re-stimulate. Proportions of responsive T cells were analyzed.
# HBsAg = details: vs pcD-S2 alone; dose dependent manner
# flea allergic dermatitis = assay: Prophylactic co-immunization in flea allergic dermatitis model; type: in vivo, C57BL/6 mice; details: than P66
# Excerpt: To see whether the difference in antigenicity influences the induction of CD25^− iTreg cells by these two epitopes, C57BL/6 mice were prophylactically treated with co-immunization using the combination of DNA and protein vaccines targeting each epitope (designated as Co100 or Co66). Seven days after co-immunization, the animals were sensitized with flea saliva extracts, followed by a delayed-type hypersensitivity assay to determine to which extent the prophylactic co-immunization prevents the development of an allergic reaction.
# With respect to tolerogenic immunization, Balb/c mice were injected intramuscular (i.m.) on days 0 and 14 with 100 ug each of OVA323-339 and pVAX1-OVA, MT1 and pVAX1-MT1, or MT2 and pVAX1-MT2. C57BL/6 mice were similarly injected with P100 and D100, or P66 and D66.
# With respect to the intradermal test and histology, antigen-sensitized C57BL/6 mice were challenged intradermally (i.d.) with 10 ug of FSA (Greer Laboratories) on the nonlesional lateral thorax skin. PBS is used as a sham control and histamine is used as a positive control. The diameter of the skin reaction was measured within 30 min after challenge using a calibrated micrometer. Skin samples were collected within 30 min of antigen challenge, fixed in 4% paraformaldehyde, embedded in paraffin, and sectioned. […]
# splenic CD4+ T cells = assay: In vitro restimulation of T cells from FSA1 sensitized mice; type: cell-based, C57BL/6 mice; details: than P66
# Protocol: Splenic CD4^+ T cells from flea antigen immunized C57BL/6 mice were restimulated with P100 or P66 (5 ug/ml) in culture. T cell proliferation was determined by a 3-(4,5-Dimethylthiazol-2-yl)-2,5-diphenyltetrazolium bromide (MTT, a yellow tetrazole)-based assay. Concanavalin A (1 ug/ml) and BSA (1 ug/ml) were used as positive and negative controls, respectively. *, p<0.05. Shown is one of three independent experiments with similar results.
# Flea allergic dermatitis is an allergic reaction to flea allergen that is mediated by CD4^+ T effector cells. To the above findings to a disease model, two antigenic epitopes from the flea allergen FSA1 were chosen, namely P66 (amino acids 66-80) (SEQ ID NO:189) and P100 (amino acids 100-114) (SEQ ID NO:188). […] This prediction was confirmed by sensitizing C57BL/6 mice (I-Ab^+) with full-length FSA1 followed by an in vitro restimulation assay using one of the epitopes.
# With respect to T cell proliferation, MTT-based and CF SE-based T cell proliferation assays were performed as described before.
# MHC-II (I-Ad) = molecular target: T1, MHC-II (I-Ad); assay: Tetramer staining-based epitope competition assay; type: binding
# Protocol: To further determine how antigenicity affects CD25^− iTreg induction, a set of mutated epitopes were generated from OVA323-339 (SEQ ID NO:187). Using a tetramer staining-based epitope competition assay, the affinity of each of the mutated epitopes for MHC-II was assessed. […] OVA323-339, MT1, and MT2 as probes for antigenicity studies were therefore selected.
# With respect to the tetramer competition assay, PE-conjugated OVA323-339-loaded I-Ad tetramer (NIH Tetramer Core Facility) was competed with OVA323-339 or a mutant peptide by incubation of 2×10^5 DO11.10 T cells, the OVA323-339 tetramer, and a competing peptide together for 5 minutes. Five volumes of medium with 10% FCS were added to stop the competition. Cells were washed 3 times and immediately analyzed for PE-positive T cells by flow cytometer.
# CD4+CD25− naive T cells = assay: Foxp3-GFP induction in naive T cells with anti-CD3/anti-CD28 and cytokines; type: cell-based, Foxp3gfp mouse
molecule,measurement,setting,value
"CN(C)c1cccc2c(S(=O)(=O)NCCCCCN)cccc12 [MDC, monodansylcadaverine]",effect on CD40low phenotype,JAWS II cells,could prevent
N=C(N)NC(=O)c1nc(Cl)c(N)nc1N [amiloride],"expression of CD40, CD80 and CD86",[1]; pcD-S2 plasmid with amiloride treatment,"higher levels of expression of CD40, CD80 and CD86"
same,expression of TNF and IFN-γ,[1]; vs same cells without amiloride treatment,higher levels of expression of TNF and IFN-γ
same,GFP expression,"[2]; 1 mM amiloride 1 h, after 3 days culture",significantly higher level of GFP
same,uptake of Cy5-labeled pEGFP plasmids,"[2]; pre-treated with 1 mM amiloride for 1 h, within 2 hrs",significantly taken up
same,effect on CD40 expression,JAWS II cells; amiloride (5 mM) for 10 min,no effect
same,percentage of Cy5-plasmid+ cells in lymph nodes (LN),[3]; amiloride 10 μM,increased
same,percentage of Cy5-plasmid+ cells in lymph nodes (LN),[3]; amiloride 100 μM,peaked
same,percentage of Cy5-plasmid+ cells in lymph nodes (LN),[3]; amiloride 1 mM,decreased
same,percentage of S208-215 specific triple positive CD8 T effectors,[4],significantly increased
same,levels of antibody against HBsAg,HBsAg,increased
CCCCC[C@@H](O)[C@H]1C(=O)O[C@H](C)[C@@H](O)/C=C/C=C/C=C/C=C/C=C(\C)[C@@H](O)C[C@H](O)C[C@H](O)C[C@H](O)C[C@H](O)C[C@H](O)C[C@@H]1O [filipin],relative effectiveness in preventing CD40low phenotype,JAWS II cells,more effective than MDC
same,effect on CD40low phenotype,JAWS II cells,could prevent
GPDWKVSKECKDPNN (Pulex irritans) [P100],CD25− iTreg induced,flea allergic dermatitis,induced more
same,T cell proliferation,splenic CD4+ T cells,significantly more vigorous T cell proliferation
ISQAVHAAHAEINEAGR (listed as Gallus gallus) [OVA323-339],order of affinity for MHC-II,MHC-II (I-Ad),OVA323-339>MT1>MT2=MT3
TGF-β1: titrated rhTGF-β1 (PeproTech),GFP (Foxp3) expression in CD25− T cells,CD4+CD25− naive T cells,up-regulated
"IL-10: rmIL10 (PeproTech) (protein, UniProt P18893 19-178, looked up) Interleukin-10: SRGQYSREDNNCTHFPVGQSHMLLELRTAFSQVKTFFQTKDQLDNILLTDSLMQDFKGYLGCQALSEMIQFYLVEVMPQAEKHGPEIKEHLNSLGEKLKTLRMRLRRCHRFLPCENKSKAVEQVKSDFNKLQDQGVYKAMNEFDIFINCIEAYMMIKMKS",GFP (Foxp3) expression in CD25− T cells,CD4+CD25− naive T cells,neither alone influenced the expression of Foxp3
